Results: ChEMBL document CHEMBL1135856, “Identification of unique VLA-4 antagonists from a combinatorial library” (Bioorg Med Chem Lett, 2002)

The compounds below were run against Integrin alpha-4/beta-1 (Homo sapiens, UniProt P05556+P13612) (assay: Inhibition of [125I]VCAM-Ig binding to Alpha-4 beta-1 (VLA-4) of Jurkat cells).
Type: cell-based

Chain of Integrin alpha-4/beta-1 (P05556 whole entry): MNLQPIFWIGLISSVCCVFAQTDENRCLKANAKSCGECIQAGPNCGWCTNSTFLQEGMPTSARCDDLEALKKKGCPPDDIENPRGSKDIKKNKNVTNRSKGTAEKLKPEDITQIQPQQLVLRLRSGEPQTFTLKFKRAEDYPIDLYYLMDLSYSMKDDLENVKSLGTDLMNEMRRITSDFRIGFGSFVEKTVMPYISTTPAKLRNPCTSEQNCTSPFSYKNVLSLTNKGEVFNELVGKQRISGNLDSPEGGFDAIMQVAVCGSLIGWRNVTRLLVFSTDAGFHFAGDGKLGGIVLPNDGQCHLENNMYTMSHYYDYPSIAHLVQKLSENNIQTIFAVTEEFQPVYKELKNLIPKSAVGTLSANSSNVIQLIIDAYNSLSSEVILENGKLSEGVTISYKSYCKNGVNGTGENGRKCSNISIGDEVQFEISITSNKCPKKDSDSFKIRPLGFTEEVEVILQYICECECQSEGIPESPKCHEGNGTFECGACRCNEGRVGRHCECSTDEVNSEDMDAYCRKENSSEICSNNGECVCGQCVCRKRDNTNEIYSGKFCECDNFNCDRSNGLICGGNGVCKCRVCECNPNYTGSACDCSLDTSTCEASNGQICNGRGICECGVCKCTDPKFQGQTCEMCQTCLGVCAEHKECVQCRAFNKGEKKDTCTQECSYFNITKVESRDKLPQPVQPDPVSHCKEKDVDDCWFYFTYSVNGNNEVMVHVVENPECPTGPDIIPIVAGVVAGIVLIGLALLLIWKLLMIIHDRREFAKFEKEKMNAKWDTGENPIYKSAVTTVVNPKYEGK
Chain of Integrin alpha-4/beta-1 (P13612 whole entry): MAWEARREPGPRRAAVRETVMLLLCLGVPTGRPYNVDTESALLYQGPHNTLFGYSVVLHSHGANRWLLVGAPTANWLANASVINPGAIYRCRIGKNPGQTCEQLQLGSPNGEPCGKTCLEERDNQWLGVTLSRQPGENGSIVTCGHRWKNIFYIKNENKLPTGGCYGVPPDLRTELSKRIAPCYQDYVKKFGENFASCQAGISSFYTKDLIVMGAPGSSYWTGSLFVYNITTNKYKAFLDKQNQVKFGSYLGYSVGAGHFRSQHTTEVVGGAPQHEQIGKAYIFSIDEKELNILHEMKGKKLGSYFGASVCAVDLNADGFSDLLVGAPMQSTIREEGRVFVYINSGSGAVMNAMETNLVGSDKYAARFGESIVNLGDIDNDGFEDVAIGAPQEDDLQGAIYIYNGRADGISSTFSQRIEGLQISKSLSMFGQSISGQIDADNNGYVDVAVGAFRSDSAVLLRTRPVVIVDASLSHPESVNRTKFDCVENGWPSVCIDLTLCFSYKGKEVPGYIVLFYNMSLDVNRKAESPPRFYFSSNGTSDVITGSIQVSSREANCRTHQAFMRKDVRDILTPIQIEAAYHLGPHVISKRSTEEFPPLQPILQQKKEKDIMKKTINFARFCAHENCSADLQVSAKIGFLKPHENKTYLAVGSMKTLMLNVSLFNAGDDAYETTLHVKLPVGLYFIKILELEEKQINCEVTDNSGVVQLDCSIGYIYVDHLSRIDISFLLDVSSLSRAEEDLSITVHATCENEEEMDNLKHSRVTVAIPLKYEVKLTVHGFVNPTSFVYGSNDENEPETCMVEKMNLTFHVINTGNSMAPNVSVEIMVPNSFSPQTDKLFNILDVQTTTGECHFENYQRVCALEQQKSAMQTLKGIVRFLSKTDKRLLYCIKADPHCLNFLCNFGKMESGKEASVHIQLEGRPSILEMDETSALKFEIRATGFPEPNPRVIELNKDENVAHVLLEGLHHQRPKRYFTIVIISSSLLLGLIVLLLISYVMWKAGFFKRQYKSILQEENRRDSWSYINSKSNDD

SMILES | IC50 [nM]
Cc1ccccc1NC(=O)Nc1ccc(CC(=O)C2CCC(C(=O)N[C@@H](Cc3ccccc3)C(=O)O)(c3ccccc3)CC2)cc1 (some centres undefined) | 8.1
O=C(N[C@@H](Cc1ccc(-c2ccccc2)cc1)C(=O)O)c1ccc(CNS(=O)(=O)c2cc(Cl)cc(Cl)c2)cc1 | 3.6
Cc1ccccc1NC(=O)Nc1ccc(CC(=O)N(CC(=O)NC(CC(=O)O)c2ccccc2)C2CCCCC2)cc1 (centres undefined) | 3.2
CCCC[C@H](NC(=O)[C@@H]1Cc2ccccc2CN1S(=O)(=O)c1ccc(OC)c(OC)c1)C(=O)O | 0.53
